From patent US11840686B2, “Modulation of prekallikrein (PKK) expression” (Ionis Pharmaceuticals, Inc., priority 2013, dated 2023)
Strand notation (5' to 3'): a small letter for the sugar, then the base; units joined by * are phosphorothioate-linked, units joined directly phosphodiester-linked; [ ] holds rarer units or linkages, { } end groups; capitals alone tell only the bases. e = 2'-O-(2-methoxyethyl) (MOE); [5mC] = 5-methylcytosine; d = 2'-deoxy (DNA)

System: human PKK mRNA
Assay: Antisense inhibition of human PKK mRNA in HepaRG cells, 5,000 nM (Example 2)
Assay type: cell-based
Method in brief: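 qRT-PCR (RTS3454) read-out, RIBOGREEN-normalized; % inhibition vs untreated cells. HepaRG, 20,000 cells/well, electroporation, 5,000 nM ASO, ~24 h.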

[1] = HepaRG cells, 5,000 nM antisense oligonucleotide, 5-10-5 gapmers, Table 16
[2] = human PKK mRNA, HepaRG cells, 5,000 nM antisense oligonucleotide, Table 18
[3] = Table 13, human PKK mRNA in HepaRG cells, 5-10-5 gapmers
[4] = HepaRG cells, electroporation with 5,000 nM antisense oligonucleotide, approximately 24 hours, PKK mRNA by RT-PCR (RTS3454), relative to untreated control cells, Table 5 experiment
[5] = HepaRG cells, electroporation with 5,000 nM antisense oligonucleotide, approximately 24 hours, PKK mRNA by RT-PCR (RTS3454), relative to untreated control cells, Table 6 experiment
[6] = HepaRG cells, electroporation, 5,000 nM antisense oligonucleotide, approx. 24 hours, primer probe set RTS3454, relative to untreated control cells, Table 11
[7] = Table 7, HepaRG cells, electroporation with 5,000 nM antisense oligonucleotide, approx. 24 hours, PKK mRNA by RT-PCR (RTS3454), relative to untreated control cells
[8] = Table 9 experiment, HepaRG cells, 20,000 cells per well, electroporation with 5,000 nM antisense oligonucleotide, approx. 24 hours, PKK mRNA by RT-PCR (RTS3454), relative to untreated control cells
[9] = Table 10 experiment, HepaRG cells, 20,000 cells per well, electroporation with 5,000 nM antisense oligonucleotide, approx. 24 hours, PKK mRNA by RT-PCR (RTS3454), relative to untreated control cells
[10] = HepaRG cells, electroporation, 5,000 nM antisense oligonucleotide, approx. 24 hours, primer probe set RTS3454, relative to untreated control cells, Table 12
[11] = human PKK mRNA, HepaRG cells, 5-10-5 motif oligonucleotides targeting SEQ ID NO: 1 and 10
[12] = HepaRG cells, 5,000 nM antisense oligonucleotide, 5-10-5 gapmers, Table 17

547700 (antisense eG*eT*eA*e[5mC]*e[5mC]*dT*dA*dT*dA*dA*d[5mC]*dT*dA*dT*dA*eA*e[5mC]*eA*eA*eT) [compound 547700]
% inhibition [1]: 0%

548763 (antisense e[5mC]*eT*e[5mC]*eT*dA*dA*d[5mC]*dA*dG*dT*dA*dT*d[5mC]*eA*e[5mC]*eT*eG) [compound 548763]
% inhibition [2]: 44%

546780 (eA*eT*eA*e[5mC]*eT*dG*dG*d[5mC]*dT*dA*dA*dG*dT*d[5mC]*dA*eG*eG*e[5mC]*e[5mC]*e[5mC]; antisense) [compound 546780]
% inhibition [3]: 83%

547303 (antisense eT*eT*e[5mC]*eT*e[5mC]*d[5mC]*dA*dT*dG*dT*d[5mC]*dA*dT*dT*dG*eA*eT*eT*eG*eA) [compound 547303]
% inhibition [4]: 72%

547677 (antisense e[5mC]*eA*eT*e[5mC]*eA*d[5mC]*dT*dG*dT*d[5mC]*d[5mC]*dT*dA*dT*dA*eA*e[5mC]*eT*eA*eT) [compound 547677]
% inhibition [1]: 62%

547362 (e[5mC]*eA*eA*e[5mC]*eA*dT*d[5mC]*d[5mC]*dA*d[5mC]*dA*dT*d[5mC]*dT*dG*eA*eG*eA*eA*e[5mC]; antisense) [compound 547362]
% inhibition [5]: 47%

547496 (antisense eA*eT*eG*e[5mC]*eT*dG*dG*dT*dG*dA*d[5mC]*dT*dG*d[5mC]*dA*eT*e[5mC]*eT*eG*eA) [compound 547496]
% inhibition [6]: 80%

547404 (eA*eG*eT*e[5mC]*eA*dA*d[5mC]*dT*d[5mC]*d[5mC]*d[5mC]*dG*dG*dG*dT*eA*eA*eA*eT*eT; antisense) [compound 547404]
% inhibition [7]: 64%

546349 (antisense eG*eT*eG*eT*eT*dT*dG*d[5mC]*dA*dA*dA*d[5mC]*dT*dA*dA*eG*eG*eG*eA*e[5mC]) [compound 546349]
% inhibition [8]: 48%
% inhibition [9]: 35%

547375 (eG*eT*eG*eA*eT*dA*dG*dG*dT*dG*d[5mC]*dA*dG*dA*dT*eG*eG*eT*e[5mC]*e[5mC]; antisense) [compound 547375]
% inhibition [7]: 72%

547406 (e[5mC]*eT*e[5mC]*e[5mC]*eT*d[5mC]*d[5mC]*dA*dA*dA*dG*dT*d[5mC]*dA*dA*e[5mC]*eT*e[5mC]*e[5mC]*e[5mC]; antisense) [compound 547406]
% inhibition [7]: 81%

547297 (antisense eT*eG*eG*eA*eA*dT*dG*dT*dG*d[5mC]*dA*d[5mC]*d[5mC]*dT*d[5mC]*eA*eT*e[5mC]*eT*eG) [compound 547297]
% inhibition [4]: 84%

547613 (antisense e[5mC]*eT*eA*eT*eA*dT*d[5mC]*dA*d[5mC]*dT*dG*dT*dA*d[5mC]*d[5mC]*eT*eG*eT*eA*eA) [compound 547613]
% inhibition (human PKK mRNA in HepaRG cells, 5-10-5 gapmers, Table 14): 39%

546237 (e[5mC]*eA*eG*eG*eT*dT*dA*dA*dA*dA*dG*dG*d[5mC]*dT*dA*eT*eA*eT*e[5mC]*e[5mC]; antisense) [compound 546237]
% inhibition [7]: 64%

547499 (antisense e[5mC]*eT*e[5mC]*eT*eG*dG*dA*d[5mC]*dT*dG*d[5mC]*dT*dT*d[5mC]*dT*e[5mC]*eA*eT*eG*e[5mC]) [compound 547499]
% inhibition [6]: 65%

546141 (eG*eA*eA*eA*eT*dA*dA*dG*dT*dT*dG*d[5mC]*dT*dT*dG*e[5mC]*eT*eT*eG*eA; antisense) [compound 546141]
% inhibition [4]: 56%

547281 (antisense eT*eT*eG*e[5mC]*eT*dT*dG*dA*dA*dT*dA*dA*dA*dA*dT*e[5mC]*eA*eT*eT*e[5mC]) [compound 547281]
% inhibition [4]: 41%

546203 (antisense eA*eA*eT*eT*eG*dT*dT*d[5mC]*d[5mC]*dG*dG*dT*dA*d[5mC]*dT*e[5mC]*eT*eG*e[5mC]*e[5mC]) [compound 546203]
% inhibition [5]: 76%

546270 (eA*e[5mC]*eA*e[5mC]*eT*dT*dA*d[5mC]*dA*d[5mC]*dT*dT*d[5mC]*dT*d[5mC]*eT*eT*e[5mC]*e[5mC]*eT; antisense) [compound 546270]
% inhibition (Table 8, HepaRG cells, electroporation with 5,000 nM antisense oligonucleotide, approx. 24 hours, PKK mRNA by RT-PCR (RTS3454), relative to untreated control cells): 32%

547381 (eT*eG*eT*eG*eA*d[5mC]*dT*d[5mC]*dG*dA*dT*dT*dT*dT*d[5mC]*e[5mC]*eA*eT*eA*e[5mC]; antisense) [compound 547381]
% inhibition [7]: 49%

547537 (antisense e[5mC]*e[5mC]*eT*eG*eT*dG*d[5mC]*dA*dT*dA*dG*dA*d[5mC]*d[5mC]*d[5mC]*e[5mC]*eA*eA*e[5mC]*eA) [compound 547537]
% inhibition [10]: 65%

547409 (eA*eG*eT*e[5mC]*eA*d[5mC]*dA*dT*dT*d[5mC]*dA*dA*dT*dT*d[5mC]*eT*eT*e[5mC]*eT*e[5mC]; antisense) [compound 547409]
% inhibition [7]: 67%

547627 (antisense eT*e[5mC]*eT*eA*e[5mC]*d[5mC]*dT*dA*dT*dA*dA*d[5mC]*dT*d[5mC]*dT*eA*eA*e[5mC]*eA*eG) [compound 547627]
% inhibition [11]: 71%

546824 (eG*eT*eA*e[5mC]*eT*dA*dG*dT*dT*dT*d[5mC]*d[5mC]*dT*dA*dT*eA*eA*e[5mC]*eT*eG; antisense) [compound 546824]
% inhibition [3]: 79%

547739 (eA*eT*eT*eG*eG*dT*dG*dG*dT*dG*dG*dG*dA*dT*dT*eG*eG*eT*eG*e[5mC]; antisense) [compound 547739]
% inhibition [12]: 12%

548761 (antisense e[5mC]*eT*eA*eA*d[5mC]*dA*dG*dT*dA*dT*d[5mC]*dA*d[5mC]*eT*eG*eT*eA) [compound 548761]
% inhibition [2]: 49%

547484 (antisense e[5mC]*eT*eA*eA*eG*dG*dG*dA*d[5mC]*d[5mC]*dA*d[5mC]*d[5mC]*dT*dG*eA*eA*eT*e[5mC]*eT) [compound 547484]
% inhibition [8]: 69%
% inhibition [9]: 64%

547716 (e[5mC]*e[5mC]*eA*eT*e[5mC]*dT*dG*dT*d[5mC]*d[5mC]*d[5mC]*d[5mC]*dT*d[5mC]*dA*eA*eT*e[5mC]*e[5mC]*e[5mC]; antisense) [compound 547716]
% inhibition [1]: 9%

547278 (antisense eA*e[5mC]*eA*e[5mC]*eA*dA*dT*dT*dG*d[5mC]*dT*dT*d[5mC]*dT*dT*eG*eG*eA*eG*eG) [compound 547278]
% inhibition [4]: 70%

546494 (eG*e[5mC]*eA*eT*eA*d[5mC]*dT*d[5mC]*dG*d[5mC]*d[5mC]*dT*dT*dT*dG*eT*eG*eA*e[5mC]*eT; antisense) [compound 546494]
% inhibition [10]: 67%

546387 (eA*eG*e[5mC]*eG*eG*dG*d[5mC]*dT*dT*d[5mC]*dA*dG*d[5mC]*d[5mC]*dA*eG*eA*e[5mC]*eA*eT; antisense) [compound 546387]
% inhibition [6]: 77%

546326 (antisense e[5mC]*e[5mC]*e[5mC]*eA*eA*d[5mC]*dA*dG*dT*dT*dG*dG*dT*dA*dT*eA*eA*eA*eT*eT) [compound 546326]
% inhibition [8]: 62%
% inhibition [9]: 64%

547475 (antisense eT*eT*eT*eG*eT*dT*dA*d[5mC]*d[5mC]*dA*dA*dA*dG*dG*dA*eA*eT*eA*eT*eT) [compound 547475]
% inhibition [8]: 44%
% inhibition [9]: 42%

546351 (antisense eT*eT*eG*e[5mC]*eT*d[5mC]*d[5mC]*d[5mC]*dT*dG*d[5mC]*dG*dG*dG*d[5mC]*eA*e[5mC]*eA*eG*e[5mC]) [compound 546351]
% inhibition [8]: 82%
% inhibition [9]: 60%

547556 (eG*e[5mC]*e[5mC]*eA*eT*dT*dT*dT*dA*dT*d[5mC]*d[5mC]*d[5mC]*dT*dG*eA*eG*eA*eT*eT; antisense) [compound 547556]
% inhibition [10]: 55%

548754 (antisense eA*eT*e[5mC]*eA*d[5mC]*dT*dG*dT*dA*d[5mC]*dT*dA*dG*dT*eT*eT*e[5mC]*e[5mC]) [compound 548754]
% inhibition [2]: 77%

547518 (antisense eT*e[5mC]*e[5mC]*eT*eT*dA*dG*dG*dA*dT*dG*d[5mC]*dA*dA*dA*eG*eA*eA*eG*eA) [compound 547518]
% inhibition [6]: 51%

546360 (antisense eA*e[5mC]*eT*eG*e[5mC]*dA*dT*d[5mC]*dT*dG*dA*dG*d[5mC]*dT*dT*eT*eT*e[5mC]*e[5mC]*eA) [compound 546360]
% inhibition [6]: 13%

546830 (eT*eA*eA*e[5mC]*eA*dG*dT*dA*dT*d[5mC]*dA*d[5mC]*dT*dG*dT*eA*e[5mC]*eT*eA*eG; antisense) [compound 546830]
% inhibition [3]: 78%

547725 (eA*eT*eT*eG*eG*dT*dG*dG*dT*dG*dG*dG*dA*dT*dT*eG*eG*eT*eG*eG; antisense) [compound 547725]
% inhibition [12]: 26%

547734 (eG*eT*eA*eG*eG*dA*dT*dT*dG*dG*dT*dG*dG*dT*dG*eG*eG*eA*eT*eT; antisense) [compound 547734]
% inhibition [12]: 14%

547645 (eA*eT*eA*eT*e[5mC]*dA*d[5mC]*dT*dG*dT*d[5mC]*d[5mC]*dT*dA*dT*eA*eA*e[5mC]*eT*eA; antisense) [compound 547645]
% inhibition [11]: 60%
